# Activity calls are given as the source filed them. The rule behind the calls is not given here.
# How the values were obtained:
# [1] = test system: MDA-MB-468; assay: Cytotoxicity against human MDA-MB-468 cells after 96 hrs by MTT assay; type: functional, cell-based; settings: MDA-MB-468, 96 h
# [2] = test system: MDA-MB-231; assay: Cytotoxicity against human MDA-MB-231 cells after 96 hrs by MTT assay; type: functional, cell-based; settings: MDA-MB-231, 96 h
# [3] = molecular target: T1, Ribosyldihydronicotinamide dehydrogenase [quinone] (Homo sapiens, UniProt P16083); assay: Inhibition of human recombinant NQO2 using DCPIP as substrate and NRH as cofactor in absence of BSA
# T1 sequence (P16083 whole entry): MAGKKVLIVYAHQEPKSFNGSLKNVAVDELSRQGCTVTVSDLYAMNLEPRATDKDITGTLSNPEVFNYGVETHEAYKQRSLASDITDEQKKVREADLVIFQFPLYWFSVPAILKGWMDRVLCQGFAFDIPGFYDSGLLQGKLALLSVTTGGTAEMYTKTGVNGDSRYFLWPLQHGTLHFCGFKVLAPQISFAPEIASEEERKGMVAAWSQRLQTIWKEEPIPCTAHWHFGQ
# [4] = test system: MCF7; assay: Cytotoxicity against human MCF7 cells after 96 hrs by MTT assay; type: functional, cell-based; settings: MCF7, 96 h
# [5] = test system: T47D; assay: Cytotoxicity against human T47D cells after 96 hrs by MTT assay; type: functional, cell-based
# [6] = molecular target: T1, Ribosyldihydronicotinamide dehydrogenase [quinone]; assay: Inhibition of human recombinant NQO2 using DCPIPas substrate and NRH as cofactor measured for 1 min by spectrophotometry in the absence of BSA
# [7] = molecular target: T1, Ribosyldihydronicotinamide dehydrogenase [quinone]; assay: Inhibition of human recombinant NQO2 using DCPIPas substrate and NRH as cofactor measured for 1 min by spectrophotometry in the prsence of BSA
# [8] = test system: Calf thymus DNA; settings: Bos taurus
# Description: Binding affinity to calf thymus DNA assessed as change in melting temperature by UV-visible spectrophometry
# [9] = Drug uptake in Plasmodium falciparum 3D7 nucleus; type: ADME
# [10] = test system: MDA-MB-231; assay: Cytotoxicity against human MDA-MB-231 cells at 10 uM after 96 hrs by MTT assay; type: functional, cell-based
# [11] = test system: T47D; assay: Cytotoxicity against human T47D cells at 10 uM after 96 hrs by MTT assay; type: functional, cell-based
# [12] = molecular target: NAD(P)H dehydrogenase [quinone] 1 (Homo sapiens) (UniProt P15559); assay: Inhibition of human recombinant NQO1 using NADH as substrate at 10 uM measured for 1 min by spectrophotometry in presence of BSA
# [13] = molecular target: NAD(P)H dehydrogenase [quinone] 1 (Homo sapiens) (UniProt P15559); assay: Inhibition of human recombinant NQO1 using NADH as substrate at 10 uM measured for 1 min by spectrophotometry in absence of BSA
# [14] = test system: MDA-MB-468; assay: Cytotoxicity against human MDA-MB-468 cells at 10 uM after 96 hrs by MTT assay; type: functional, cell-based
# [15] = test system: MCF7; assay: Cytotoxicity against human MCF7 cells at 10 uM after 96 hrs by MTT assay; type: functional, cell-based
# [16] = test system: Plasmodium falciparum; assay: Antimalarial activity against Plasmodium falciparum 3D7 infected in erythrocyte assessed as growth inhibition after 4 days by flow cytometry; type: functional, organism-based; settings: 3D7, 96 h
# Chain of NAD(P)H dehydrogenase [quinone] 1 (Homo sapiens) (P15559 whole entry): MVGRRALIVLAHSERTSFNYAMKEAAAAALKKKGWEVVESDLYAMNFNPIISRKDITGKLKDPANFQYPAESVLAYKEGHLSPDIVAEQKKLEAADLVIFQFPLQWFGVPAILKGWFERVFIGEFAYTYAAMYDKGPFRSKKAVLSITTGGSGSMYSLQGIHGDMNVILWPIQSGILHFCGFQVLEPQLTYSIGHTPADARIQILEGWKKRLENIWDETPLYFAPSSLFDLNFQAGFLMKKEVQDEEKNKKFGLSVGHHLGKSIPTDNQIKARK
SMILES,IC50 [1] [nM],IC50 [2] [nM],IC50 [3] [nM],IC50 [4] [nM],IC50 [5] [nM],IC50 [6] [nM],IC50 [7] [nM],ΔTm [8] [°C],Drug uptake [9],Activity [10],Activity [11],inhibition [12],inhibition [13],Activity [14],Activity [15],IC50 [16] [nM]
CC(=O)O.CC(=O)O.N=C(N)c1ccc(-c2ccc(-c3ccc(C(=N)N)cc3)o2)cc1,14000,12500,630,13600,12800,35,72,20,Active,–,–,–,–,–,–,–
N=C(N)c1cccc(-c2ccc(-c3ccccc3)o2)c1,–,–,–,–,–,–,–,–,–,inactive,inactive,inactive,inactive,inactive,inactive,–
N=C(N)c1ccc(-c2ccc(-c3cccc([N+](=O)[O-])c3)o2)cc1,3300,2900,–,3000,3300,14.5,28,–,–,–,–,–,–,–,–,–
CC(=O)O.N=C(N)c1ccc(-c2ccc(-c3ccc(F)cc3)o2)cc1,3800,3200,–,3700,3600,505,836,3.2,Not Active,–,–,–,–,–,–,9.6
CC(C)(C)c1ccc(-c2ccc(-c3ccc(C(=N)N)cc3)o2)cc1,3800,3200,–,3700,3600,510,712,–,–,–,–,–,–,–,–,–
COc1cccc2c1C(=O)c1c(O)c3c(c(O)c1C2=O)C[C@@](O)(C(=O)CO)C[C@@H]3O[C@H]1C[C@H](N)[C@H](O)[C@H](C)O1,–,–,–,–,–,–,–,20.5,–,–,–,–,–,–,–,–
N=C(N)c1ccc(-c2ccc(-c3ccc([N+](=O)[O-])cc3)o2)cc1,3400,3100,–,3200,3800,15.2,24,–,–,–,–,–,–,–,–,–
CCc1ccc(-c2ccc(-c3ccc(C(=N)N)cc3)o2)cc1,3300,3400,–,3200,3000,202,312,–,–,–,–,–,–,–,–,–
N=C(N)c1ccc(-c2ccc(-c3ccccc3)[nH]2)cc1,3600,3800,–,3200,3400,332,832,–,–,–,–,–,–,–,–,–
N=C(N)c1ccc(-c2ccc(-c3ccccc3)o2)cc1,2700,2000,140,2400,2800,68,139,1.9,–,–,–,–,–,–,–,–
N=C(N)c1ccc(-c2ccc(-c3ccc(Br)cc3)o2)cc1,2500,2700,–,2600,2400,27,185,4.4,–,–,–,–,–,–,–,–
Cc1c(-c2ccc(C(=N)N)cc2)oc(-c2ccc(C(=N)N)cc2)c1C,–,–,50,–,–,–,–,–,–,–,–,–,–,–,–,–
Cn1c(-c2ccccc2)ccc1-c1ccc(C(=N)N)cc1,3800,2600,–,2700,2100,410,943,0.9,–,–,–,–,–,–,–,–
N=C(N)c1ccc(-c2ccc(-c3cccc(F)c3)o2)cc1,2400,2000,–,2600,2800,98,111,3.2,–,–,–,–,–,–,–,–
CC(=O)O.Cc1ccc(-c2ccc(-c3ccc(C(=N)N)cc3)o2)cc1,3700,3400,–,4800,3100,72,110,2.8,Not Active,–,–,–,–,–,–,57.5
Oc1ccc(/C=C/c2cc(O)cc(O)c2)cc1 [RESVERATROL],58000,57000,–,62000,59000,–,–,–,–,–,–,–,–,–,–,–
CC(=O)O.COc1ccc(-c2ccc(-c3ccc(C(=N)N)cc3)o2)cc1,2200,2500,–,2800,3000,107,141,2,Not Active,–,–,–,–,–,–,139

# Reference: ChEMBL document CHEMBL3769335, “Non-symmetrical furan-amidines as novel leads for the treatment of cancer and malaria” (Eur J Med Chem, 2016)
